Data published in patent US10501458B2, “Substituted bicyclic fused ring compounds as indoleamine-2,3-dioxygenase inhibitors” (Merck Sharp & Dohme Corp., priority 2015, dated 2019).

Key:
IDO1 [1] = target: T1, IDO1 (Homo sapiens (Human), UniProt P14902); experiment: IDO1 Enzyme Assay; assay type: biochemical; conditions: HIS-tagged recombinant IDO1, tryptophan substrate, fluorescence readout; for IC50: read-out: IDO1 Enzyme, pIC50 (converted)
Description: Compounds to be tested were serially diluted in ten 3-fold steps in DMSO starting from 10 mM DMSO stocks. Compound dilutions or DMSO alone were then dispensed from the dilution plate into a Greiner black 384-well assay plate (catalog #781086) using an Echo 555 acoustic liquid handler (Labcyte).
HIS-tagged IDO1 protein was recombinantly expressed in Escherichia coli using ZYP5052 autoinduction media supplemented with 500 μM delta aminolevulinic acid for 48 hours at 16 degrees Celsius. IDO1 protein was purified using Ni^2+-affinity resin and size exclusion chromatography. Purified protein was then diluted in assay buffer (50 mM Tris pH 7.0, 1% glycerol, 20 uM methylene blue, 0.05% Tween-20, 20 mM sodium ascorbate, 100 units/mL catalase to obtain a final IDOL concentration of 40 nM. IDOL solution ([…]) or buffer alone ([…]) were dispensed to wells of the assay plate using a BioRAPTR liquid dispenser (Beckman Coulter). Assay plates containing compound and IDO1 enzyme were incubated at room temperature for 30 minutes. Afterwards, 10 μL of 400 μM tryptophan in assay buffer were added to each well of the assay plate using a BioRAPTR liquid dispenser. Plates were incubated at room temperature for 60 minutes and reactions were quenched by addition of 10 μL of 0.5 M methyl isonipecotate in dimethyl sulfoxide. Plates were sealed and incubated at 37 degrees Celsius for 4 hours or 50 degrees Celsius for 2 hours. The plates are allowed to cool and then centrifuged for 1 minute at 1000×g. The resulting fluoresence was measured in an Envision plate reader (Perkin Elmer) with a 400/25 nm excitation filter and an 510/20 nm emission filter.
Potencies were calculated by linear least squares fit to the four parameter logistic IC50 equation.

IDO1 [2] = target: T1, IDO1; experiment: IDO1 HEK293 Cellular Assay; assay type: cell-based; conditions: HEK293 cells transfected with Flag-IDO1, 200 μM L-Tryptophan, 20-24 hours; for IC50: read-out: HEK293 cell, pIC50 (converted)
Description: IDO1 HEK293 Cellular Assay
Compounds to be tested were serially diluted in ten 3-fold steps in DMSO starting from 10 mM DMSO stocks. Compound dilutions or DMSO alone were then dispensed from the dilution plate into a Greiner black 384-well assay plate (catalog #781086) using an Echo 550 acoustic liquid handler (Labcyte).
HEK293 cell pellets were resuspended to 5×10^5 cells/mL in complete HEK293 culture media (89% DMEM, 10% FBS, 1% penicilllin/streptomycin). Suspended cells (2 mL) were dispensed into each well of a 6-well Corning plate (Catalog#3516). Cells were allowed to attach and were incubated for 20 hours at 37 degrees Celsius in a 5% CO2 incubator. Flag-IDO1 vector (Genscript True ORF Gold, 2 ug) in 150 uL of Opti-MEM medium was added to each well of a Corning 24 well plate (Cat#3527) and incubated for 5 minutes at room temperature. To each well of the 24-well plate was added 150 μL Lipofectamine 2000 (Gibco) and the plate incubated at room temperature for 20-30 minutes. To each well of attached cells in the 6-well plate, 250 μL of the transfection mix from the 24well plate was gently added to each well and IDO1 protein was allowed to express for 24-30 hours at 37 degrees Celsius in a 5% CO2 incubator.
Media was removed from the cells which were then washed with 2 mL Dulbecco's phosphate-buffered saline (DPBS). After removal of DPBS, 0.5 mL of TrypLE (Gibco) was added and incubated at 5 minutes until cells lift from the surface of the wells. Complete HEK293 culture media (4 mL) was added to each well and cells were collected and pooled into a conical tube. Cells were pelleted at 200×g for 5 minutes and resuspended in an equal volume of complete DMEM medium. Cells were diluted to 4×10^5 cells per mL in complete HEK293 media. L-Tryptophan was added to added to give a final concentraiton of 200 μM. The diluted transfected cells (50 μL) or nontransfected cells (50 μL) were dispensed into wells of Greiner black 384-well assay plates (catalog #781086) containing previously diluted compounds. The plate is briefly mixed and centrifuged at 200×g for 10 seconds to collect cells at the bottom of the plate. Plates were covered and incubated for 20-24 hours at 37 degrees C. in a 5% CO2 incubator. Afterwards 10 μL of 0.5 M methyl isonipecotate in dimethyl sulfoxide was added to each well, mixed, sealed, and centrifuged at 500 rpm for 10 seconds. Plates were incubated at 37 degrees in a 5% CO2 incubator overnight to develop fluoresence. The plates are allowed to cool and then centrifuged for 1 minute at 1000×g. The resulting fluoresence was measured in an Envision plate reader (Perkin Elmer) with a 400/25 nm excitation filter and an 510/20 nm emission filter.
The fluoresence intensity of each well was corrected for the background observed in wells with untransfected cells and was expressed as a fraction of the intensity observed in wells of IDO1 transfected cells and DMSO only. Potencies were calculated by linear least squares fit to the four parameter logistic IC50 equation.

IDO [3] = target: T2, IDO (Homo sapiens (Human), UniProt P14902); experiment: SKOV3 kynurenine cell-based assay (IDO induced by IFN-γ); conditions: SKOV3 human ovarian adenocarcinoma cells, 500 ng/ml IFN-γ, 500 μM L-tryptophan, 48 hours
Description: (§1) Exemplary compounds of the invention were prepared, and tested to determine their effect as TDO and/or IDO inhibitors. Two different assays were employed: 1. a cell-based assay for detecting the effect of test compounds on kynurenine production in two different cancer cell types. This assay utilised cancer cells which expressed either TDO or IDO and as such was used as a means of testing compound activity at these two enzymes in a cell-based context. 2. a TDO and IDO biochemical coupled assay which utilised recombinantly produced and purified TDO and IDO enzymes in combination with the enzyme formamidase. This coupled enzyme system allowed conversion of N-formylkynurenine produced by TDO or IDO activity to kynurenine which was then quantified by fluorescence following addition of Erhlich's Reagent The protocols for these are set out below.
(§2) Cell Based Assay for Detection of Kynurenine Produced by TDO and/or IDO
(§3) A172 (human glioblastoma) and SKOV3 (human ovarian adenocarcinoma) cells were seeded in a 96 well plate at 30,000 or 40,000 cells per well respectively in phenol red-free RPMI supplemented with 10% FCS, 2 mM L-glutamine and 500 μM L-tryptophan. IDO expression was induced in the SKOV3 cells by the addition of 500 ng/ml IFN-γ. Cells were incubated at 37° C. with or without the addition of test compound. After 48 hours, the cells were removed by centrifugation and Erhlich's reagent was added to the supernatant. The Erhlich's reagent was incubated for 5 minutes before the absorbance was read at 490 nm.

TDO [4] = target: T3, TDO (Homo sapiens (Human), UniProt P48775); experiment: A172 kynurenine cell-based assay; conditions: A172 human glioblastoma cells, 500 μM L-tryptophan, 48 hours
Description: as §1, §2, §3

IDO [5] = target: T2, IDO; experiment: hIDO biochemical coupled assay; conditions: 45 μM L-tryptophan, 17 minutes at room temperature; read-out: hIDO biochemical assay, pIC50 (converted)
Description: as §1
(§4) TDO and IDO Biochemical Coupled Assay
(§5) Recombinant human IDO or TDO was incubated in 50 mM KPO4 (pH 7.0), 0.5 mM EGTA, 0.5 mM EDTA, 0.05% Triton™ X100, 20 mM ascorbate, 10 μM methylene blue, 500 U/ml catalase, 50 μg/ml KynB (kynurenine formamidase). TDO assays were carried out in the presence of 330 μM L-tryptophan, while IDO assays had the addition of 45 μM L-tryptophan. After incubation for 17 minutes at room temperature the reactions were stopped by the addition of Erhlich's reagent and incubated at room temperature for 5 minutes before the fluorescence was read (Ex 475, Em530).

TDO [6] = target: T3, TDO; experiment: hTDO biochemical coupled assay; conditions: 330 μM L-tryptophan, 17 minutes at room temperature; read-out: hTDO biochemical assay, pIC50 (converted)
Description: as §1, §4, §5

T2 sequence (P14902 whole entry): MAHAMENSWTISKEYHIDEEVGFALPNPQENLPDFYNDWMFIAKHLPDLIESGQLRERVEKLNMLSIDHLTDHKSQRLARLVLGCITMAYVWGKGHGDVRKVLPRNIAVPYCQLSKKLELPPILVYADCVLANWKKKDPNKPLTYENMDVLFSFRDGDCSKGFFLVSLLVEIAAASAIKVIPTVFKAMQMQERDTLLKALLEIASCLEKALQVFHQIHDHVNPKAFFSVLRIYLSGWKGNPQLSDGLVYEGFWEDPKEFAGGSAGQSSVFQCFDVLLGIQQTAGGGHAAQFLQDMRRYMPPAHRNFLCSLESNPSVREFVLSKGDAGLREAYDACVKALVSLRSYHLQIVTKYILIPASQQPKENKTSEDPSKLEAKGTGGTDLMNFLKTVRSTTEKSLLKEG
T1 sequence (P14902 whole entry): as above
T3 sequence (P48775 whole entry): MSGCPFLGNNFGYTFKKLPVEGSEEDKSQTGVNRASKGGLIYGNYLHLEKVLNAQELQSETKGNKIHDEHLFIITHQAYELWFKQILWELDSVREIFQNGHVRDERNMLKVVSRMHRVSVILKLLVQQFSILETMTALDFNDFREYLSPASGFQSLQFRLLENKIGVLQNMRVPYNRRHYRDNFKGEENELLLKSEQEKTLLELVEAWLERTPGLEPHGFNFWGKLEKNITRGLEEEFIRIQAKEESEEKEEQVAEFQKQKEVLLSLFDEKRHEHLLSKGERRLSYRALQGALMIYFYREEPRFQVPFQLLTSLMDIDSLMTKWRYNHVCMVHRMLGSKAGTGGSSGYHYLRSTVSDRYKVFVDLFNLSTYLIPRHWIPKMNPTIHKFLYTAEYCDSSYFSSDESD

Row | SMILES | IC50 (IDO1 [1]) [µM] | IC50 (IDO1 [2]) [µM] | also measured
1 | FC(F)(F)c1cc(N2CCC(n3cnnn3)CC2)n2cncc2c1 [Compound 1038, 5-[4-(1H-tetrazol-1-yl)piperidin-1-yl]-7-(trifluoromethyl)imidazo[1,5-a]pyridine] | 1 | 0.794 | 
2 | CC1(C)CN(c2cc(Br)cc3cncn23)CCN1S(C)(=O)=O [Compound 1021] |  |  | IDO1 Enzyme, pIC50 (IDO1 [1]): 6.8; HEK293 cell, pIC50 (IDO1 [2]): 6.7; SKOV3 Kynurenine cell based assay, pIC50 (IDO [3]): +++ (+++ = pIC50 ≥5.50); A172 Kynurenine cell based assay, pIC50 (TDO [4]): +++ (+++ = pIC50 ≥5.50)
3 | Cn1c(N)c(N2CCN(c3cc(C(F)(F)F)cc4cncn34)CC2)c(=O)n(C)c1=O [Compound 1037, 6-amino-1,3-dimethyl-5-{4-[7-(trifluoromethyl)imidazo[1,5-a]pyridin-5-yl]piperazin-1-yl}pyrimidine-2,4(1H,3H)-dione] | 0.794 | 3.98 | 
4 | Cc1noc(C2CCN(c3cc(C(F)(F)F)cc4cncn34)CC2)c1C(N)=O [Compound 1035, 3-methyl-5-{1-[7-(trifluoromethyl)imidazo[1,5-a]pyridin-5-yl]piperidin-4-yl}isoxazole-4-carboxamide] | 0.251 | 0.501 | 
5 | CNC(=O)c1c(C)noc1C1CCN(c2cc(C(F)(F)F)cc3cncn23)CC1 [Compound 1036, N,3-dimethyl-5-{1-[7-(trifluoromethyl)imidazo[1,5-a]pyridin-5-yl]piperidin-4-yl}isoxazole-4-carboxamide] | 0.398 | 2.51 | 
6 | CS(=O)(=O)c1ccc(-c2cc(C(F)(F)F)cc3cncn23)cc1 [Compound 1015, 5-(4-(methylsulfonyl)phenyl)-7-(trifluoromethyl)imidazo[1,5-a]pyridine] |  |  | IC50 (IDO [5]): 3.24 to 31.6 µM; IC50 (TDO [6]): 32.4 to 100 µM; IC50 (IDO [3]; read-out: SKOV3 Kynurenine cell based assay, pIC50 (converted)): 32.4 to 100 µM; IC50 (TDO [4]; read-out: A172 Kynurenine cell based assay, pIC50 (converted)): 3.24 to 31.6 µM
